Reference: ChEMBL document CHEMBL2151039, “Discovery and development of α7 nicotinic acetylcholine receptor modulators” (J Med Chem, 2011)
pEC50, pKi: −log10 of the molar value.

Assays:
[1] = molecular target: Neuronal acetylcholine receptor; alpha4/beta2 (Homo sapiens, UniProt P17787+P43681); test: Binding affinity to alpha4beta2 nAChR; assay type: protein-complex assay
[2] = molecular target: T1, 5-hydroxytryptamine receptor 3A (Homo sapiens, UniProt P46098); test: Displacement of [3H]-BRL-43694 from human 5HT3 receptor
T1 sequence (P46098 whole entry): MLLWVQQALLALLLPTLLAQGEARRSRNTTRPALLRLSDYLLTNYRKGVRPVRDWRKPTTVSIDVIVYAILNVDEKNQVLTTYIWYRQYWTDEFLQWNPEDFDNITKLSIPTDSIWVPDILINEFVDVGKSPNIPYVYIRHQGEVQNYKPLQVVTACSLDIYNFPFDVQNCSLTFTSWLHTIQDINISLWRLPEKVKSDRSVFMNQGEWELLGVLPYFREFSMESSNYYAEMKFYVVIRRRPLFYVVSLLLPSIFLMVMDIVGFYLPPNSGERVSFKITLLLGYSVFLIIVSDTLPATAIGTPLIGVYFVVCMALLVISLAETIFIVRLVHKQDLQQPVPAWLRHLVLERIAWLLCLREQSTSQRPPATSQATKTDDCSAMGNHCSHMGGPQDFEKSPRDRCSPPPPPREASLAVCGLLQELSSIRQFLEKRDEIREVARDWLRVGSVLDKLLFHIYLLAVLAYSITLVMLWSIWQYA

[3] = Volume of distribution in rat; assay type: ADME, organism-based; conditions: in vivo
[4] = molecular target: T2, Neuronal acetylcholine receptor subunit alpha-7 (Rattus norvegicus, UniProt Q05941); test: Binding affinity to alpha7 nAChR in rat brain membranes; assay type: cell membranes
T2 sequence (Q05941 whole entry): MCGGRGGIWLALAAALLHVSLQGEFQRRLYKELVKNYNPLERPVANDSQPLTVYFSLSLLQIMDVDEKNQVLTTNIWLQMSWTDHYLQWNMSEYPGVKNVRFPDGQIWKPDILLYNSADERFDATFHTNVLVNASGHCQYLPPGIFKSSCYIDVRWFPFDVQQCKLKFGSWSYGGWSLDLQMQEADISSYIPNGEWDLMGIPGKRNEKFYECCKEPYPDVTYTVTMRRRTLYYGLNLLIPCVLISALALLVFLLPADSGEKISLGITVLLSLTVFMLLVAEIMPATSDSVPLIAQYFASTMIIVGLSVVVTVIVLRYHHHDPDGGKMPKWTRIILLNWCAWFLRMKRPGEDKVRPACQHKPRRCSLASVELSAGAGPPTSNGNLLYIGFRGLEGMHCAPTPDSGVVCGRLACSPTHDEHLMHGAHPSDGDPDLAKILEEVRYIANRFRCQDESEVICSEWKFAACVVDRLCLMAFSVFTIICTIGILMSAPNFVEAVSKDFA

[5] = molecular target: T2, Neuronal acetylcholine receptor subunit alpha-7; test: Displacement of [3H]-MLA from alpha7 nAChR in rat brain membranes; assay type: cell membranes
[6] = Volume of distribution in dog; assay type: ADME, organism-based, Canis lupus familiaris; conditions: in vivo
[7] = Oral bioavailability in dog; assay type: ADME, organism-based, Canis lupus familiaris; conditions: in vivo
[8] = Volume of distribution in mouse; assay type: ADME, organism-based; conditions: in vivo
[9] = molecular target: T3, Neuronal acetylcholine receptor subunit alpha-7 (Homo sapiens, UniProt P36544); test: Agonist activity at alpha7 nAChR; assay type: functional
T3 sequence (P36544 whole entry): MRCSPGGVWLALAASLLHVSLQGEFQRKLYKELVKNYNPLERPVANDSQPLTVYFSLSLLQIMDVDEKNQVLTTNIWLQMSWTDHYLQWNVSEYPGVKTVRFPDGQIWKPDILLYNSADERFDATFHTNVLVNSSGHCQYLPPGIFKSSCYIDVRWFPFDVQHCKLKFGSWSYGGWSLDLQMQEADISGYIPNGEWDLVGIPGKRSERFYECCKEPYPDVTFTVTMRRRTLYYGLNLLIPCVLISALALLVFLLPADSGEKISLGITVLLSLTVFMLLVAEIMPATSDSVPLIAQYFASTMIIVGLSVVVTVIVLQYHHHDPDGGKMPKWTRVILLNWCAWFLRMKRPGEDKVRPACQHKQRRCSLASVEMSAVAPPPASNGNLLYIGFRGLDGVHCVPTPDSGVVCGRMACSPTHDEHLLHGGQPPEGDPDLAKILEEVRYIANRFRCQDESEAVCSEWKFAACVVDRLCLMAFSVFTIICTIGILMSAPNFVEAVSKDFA

[10] = molecular target: T3, Neuronal acetylcholine receptor subunit alpha-7; test: Binding affinity to alpha7 nAchR in human frontal cortex membranes; assay type: cell membranes, Membrane
[11] = Oral bioavailability in mouse; assay type: ADME, organism-based; conditions: in vivo
[12] = Oral bioavailability in rat; assay type: ADME, organism-based; conditions: in vivo

Chain of Neuronal acetylcholine receptor; alpha4/beta2 (P17787 whole entry): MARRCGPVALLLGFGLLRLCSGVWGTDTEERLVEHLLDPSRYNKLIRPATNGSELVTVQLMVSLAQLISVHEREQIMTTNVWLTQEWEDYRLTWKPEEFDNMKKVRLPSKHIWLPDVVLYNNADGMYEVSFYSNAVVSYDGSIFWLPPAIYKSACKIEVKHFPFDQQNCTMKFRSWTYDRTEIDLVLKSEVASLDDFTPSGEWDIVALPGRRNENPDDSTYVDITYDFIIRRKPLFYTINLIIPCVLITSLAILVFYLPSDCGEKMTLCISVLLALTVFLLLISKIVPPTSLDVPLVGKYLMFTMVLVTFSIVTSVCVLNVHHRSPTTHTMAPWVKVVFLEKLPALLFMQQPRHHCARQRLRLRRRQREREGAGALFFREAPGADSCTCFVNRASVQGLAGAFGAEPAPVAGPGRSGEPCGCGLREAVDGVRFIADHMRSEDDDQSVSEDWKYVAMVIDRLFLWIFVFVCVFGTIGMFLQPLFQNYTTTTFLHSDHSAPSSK
Chain of Neuronal acetylcholine receptor; alpha4/beta2 (P43681 whole entry): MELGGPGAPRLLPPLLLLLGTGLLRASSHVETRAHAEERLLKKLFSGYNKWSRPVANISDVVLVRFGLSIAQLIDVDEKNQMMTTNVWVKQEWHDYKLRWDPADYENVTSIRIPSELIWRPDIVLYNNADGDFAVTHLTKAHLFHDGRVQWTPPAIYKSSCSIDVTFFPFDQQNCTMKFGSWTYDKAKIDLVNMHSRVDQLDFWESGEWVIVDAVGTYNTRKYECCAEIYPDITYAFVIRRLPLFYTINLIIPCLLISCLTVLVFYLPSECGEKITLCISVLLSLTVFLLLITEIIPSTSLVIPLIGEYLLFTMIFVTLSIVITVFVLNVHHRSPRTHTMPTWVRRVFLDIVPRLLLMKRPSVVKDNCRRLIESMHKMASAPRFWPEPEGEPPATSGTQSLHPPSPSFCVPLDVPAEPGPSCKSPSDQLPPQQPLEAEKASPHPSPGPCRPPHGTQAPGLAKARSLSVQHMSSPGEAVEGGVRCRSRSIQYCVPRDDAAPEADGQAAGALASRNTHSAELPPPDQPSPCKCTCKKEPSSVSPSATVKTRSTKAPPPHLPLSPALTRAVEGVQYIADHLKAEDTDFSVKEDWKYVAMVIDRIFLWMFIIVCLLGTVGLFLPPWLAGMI

CN1CC2CN(c3ccc(-c4ccccc4)nn3)CC2C1 (configuration not stated) gave a pKi [1] of less than 4.00, a pKi [2] of 6.82 and a Vd [3] of 4 L/kg. For the same compound, the pKi [4] was 7.97, the pKi [5] was 7.06 and the Vd [6] was 4 L/kg. The bioavailability [7] was 22%, the Vd [8] was 4 L/kg and the pEC50 [9] was 5.37. It also gave a pKi [10] of 7.77, a bioavailability [11] of 100% and a bioavailability [12] of 90%.
